From US9907837B2, “Composition for preventing or treating cachexia” (GemVax & KAEL Co., Ltd., priority 2012, dated 2018)

Tested on: TNF-α
Assay: TNF-α ELISA with culture of LPS-stimulated PBMC-derived monocytes
Format: cell-based, human
Details: monocytes stimulated with LPS 10 ng/ml 2 hrs, starved 1 hr, 4 uM treated for 2 hrs, cell culture medium
Procedure: PBMC (peripheral blood mononuclear cell) was separated from the blood samples (50 ml) collected from healthy subjects using Ficoll-Paque™ PLUS (GE Healthcare Life Sciences, Piscataway, N.J., USA). PBMCs were then enriched in complete RPMI 1640 medium containing 20% of human serum, followed by transferring to 100 mm polystyrene cell culture plate coated with human serum for 30 mins. […]
To investigate the effect of PEP-1 on TNF-α level in terms of protein expression level, ELISA (enzyme linked immunosorbent assay) was performed. […] After culturing, cell soup was collected, and the amount of TNF-α was measured using ELISA kit (R&D, Minneapolis, Minn., USA) as follows.
TNF measurement uses sandwich ELISA method. […] Again, plate was washed, and avidin/biotin was added for measuring the absorbance. TNF-α level of each sample was quantified using the standard graph calculated from the absorbance of standard solution.
PBMC-derived monocytes were stimulated with endotoxin LPS (10 ng/ml) for 2 hrs, starved for 1 hr using OPTI-MEM, and then 4 uM of FITC, FITC-TAT, PEP 1-FITC and FITC-PEP 1 were treated for 2 hrs. After incubation, TNF-α level was measured with cell culture medium using ELISA.

## Fluorescein Isothiocyanate [FITC]
  TNF-α level: 6.2 ng/mL
